According to patent US4605641A, “Synthetic vasoactive intestinal peptide analogs” (Hoffmann-La Roche Inc., priority 1984, dated 1986):
Peptide text beside a SMILES is read from it.

Tests used:
[1] = tested on: Human Bronchial Smooth Muscle; assay: Relaxation of isolated human bronchial smooth muscle rings; assay type: cell-based; details: for Rel. Potency: human bronchial smooth muscle, relative to VIP (1-28) = 100%
Experimental: Human bronchial smooth muscle or intra-pulmonary arteries were obtained from surgical section or autopsy from Overlook Hospital, Summit, N.J. Airway or vascular rings were suspended by two 30 gauge stainless steel wires in a 10 ml jacket tissue bath and attached via 4-0 silk thread to a Grass forcer displacement transducer (model FT030C, Grass Instrument Co., Quincy, MA), for isometric recording of tension. The smooth muscle was bathed in modified Kreb's solution of the following composition: NaCl, 120 mM; KCl, 4.7 mM; CaCL2, 2.5 mM; MgSO4.7H2 O; 1.2 mM; NaHCO3, 25 mM; KH2 PO4 monobasic, 1.2 mM; and dextrose, 10 mM. Tissue baths were maintained at 37.5° C. and constantly bubbled with 95% O2 and 5% CO2. Responses were recorded on a 8 channel and 4 channel Hewlett-Packard (model 7702B and 7754A, respectively) recorder (Hewlett Packard, Paramus, NJ). All tissues were placed under a resting tension (airway, 1.5 g; vascular, 1 g) which was determined to be near optimal in preliminary experiments. Frequent readjustments of tension were required during the 120-180 min. stabilization period which followed. Tissues were rinsed at 15 min. intervals. Vascular tissues were primed once with phenylephrine (10^-5 M) and washed for an additional hour. Steady state contractions of vacular tissues were obtained with phenylephrine (10^-5 M) while airway tissues were precontracted with histamine (3×10^-4 M).
Cumulative concentration response curves were obtained for each tissue by successive […] in the bath concentration of VIP or potential VIP agonists according to the method of VanRossum noted above. Only one cumulative dose response curve was obtained on a single piece of tissue. To minimize variability between tissues, relaxant responses were expressed as a percentage of the maximum response obtainable to papaverine (vascular, 10^-4 M=100%) or isoproterenol (airway, 10^-4 M=100%) added at the end of the concentration response curve. […] Responses obtained from four tissues were pooled and EC50 values were determined by linear regression.

[2] = tested on: guinea pig trachea smooth muscle; assay: Bronchodilator (relaxant) effect on isolated guinea pig tracheal rings; assay type: cell-based; details: for Relative Potency: guinea pig trachea, relative to VIP = 100%; for EC50: guinea pig tracheal rings, relaxation as % of maximum response to VIP 10^-6 M, three tissues pooled, linear regression, read-out: EC50 (M), agonist activity, bronchodilator effect
Excerpt: The bronchodilatory effect of VIP analogs was studied in a model utilizing guinea pig trachea. Wasserman, M. A. et al. "Comparative In Vitro Tracheal Relaxant Effects of Porcine and Hen VIP" in Vasoactive Intestinal Peptide ed. Said, S.I., Raven Press (New York, 1982).
All tissues were taken from male albino guinea pigs weighing 400-600 g, anesthetized with urethane 2 g/kg i.p. After exsanguination the trachea was removed and divided into four ring segments (3 mm length). Each ring was suspended by two 30 guage stainless steel wires in a 10 ml jacket tissue bath and attached via 4-0 silk thread to a Grass force displacement transducer (model FT03C, Grass Instrument Co., Quincy, MA), for isometric recording of tension. The smooth muscle was bathed in modified Krebs solution of the following composition: NaCl, 120 mM; KCl, 4.7 mM; CaCl2, 2.5 mM; MgSO4.7H2 O; 1.2 mM; NaHCO3, 25 mM; KH2 PO4 monobasic, 1.2 mM; and dextrose, 10 mM. Tissue baths were maintained at 37.5° C. and constantly bubbled with 95% O2 and 5% CO2. Responses were recorded on an 8 channel and 4 channel Hewlett-Packard (model 7702B and 7754A, respectively) recorder (Hewlett Packard, Paramus, NJ). Tracheal rings were placed under a resting tension of 1.5 g which was determined to be at or near optimal in preliminary experiments. Frequent readjustments of tension were required during the 60 min. stabilization period which followed. Tissues were rinsed at 15 min. intervals.
Cumulative concentration response curves were obtained for each tissue by successive […] in the bath concentration of VIP or potential VIP agonists according to the method of VanRossum J. M., Arch. Int Pharmacodyn, 143, 299-330 (1963). Only one cummulative dose response curve was obtained on a single piece of tissue. To minimize variability between tissues, relaxant responses are expressed as a percentage of the maximum response obtainable to VIP (10^-6 M=100%) added at the end of the concentration response curve. Responses obtained from three tissues were pooled and EC50 values were determined by linear regression.

EC50 [2] [M]	SMILES	Rel. Potency [1] [%]	Bronchodilator / relaxant activity (in words) ([1]; human in vitro tissue, summary of Table II)	Relative Potency [2] [%]
3.8e-09	CCCC[C@H](NC(=O)[C@H](CCC(N)=O)NC(=O)[C@H](CCCCN)NC(=O)[C@H](CCCNC(=N)N)NC(=O)[C@H](CC(C)C)NC(=O)[C@H](CCCCN)NC(=O)[C@@H](NC(=O)[C@H](Cc1ccc(O)cc1)NC(=O)[C@H](CC(N)=O)NC(=O)[C@H](CC(=O)O)NC(=O)[C@@H](NC(=O)[C@H](Cc1ccccc1)NC(=O)[C@@H](NC(=O)[C@H](C)NC(=O)[C@H](CC(=O)O)NC(=O)[C@H](CO)NC(=O)[C@@H](N)Cc1c[nH]cn1)C(C)C)[C@@H](C)O)[C@@H](C)O)C(=O)N[C@@H](C)C(=O)N[C@H](C(=O)N[C@@H](CCCCN)C(=O)N[C@@H](CCCCN)C(=O)N[C@@H](Cc1ccc(O)cc1)C(=O)N[C@@H](CC(C)C)C(=O)N[C@@H](CC(N)=O)C(=O)N[C@@H](CO)C(=O)N[C@H](C(=O)N[C@@H](CC(C)C)C(=O)N[C@@H](CC(N)=O)C(N)=O)[C@@H](C)CC)C(C)C [(Lys^12, Nle^17)--VIP, (Lys^12, Nle^17)-VIP] (HELM PEPTIDE1{H.S.D.A.V.F.T.D.N.Y.T.K.L.R.K.Q.[Nle].A.V.K.K.Y.L.N.S.I.L.N.[am]}$$$$V2.0)	165		263
9e-09	CCCC[C@H](NC(=O)[C@H](CCC(N)=O)NC(=O)[C@H](CCCCN)NC(=O)[C@H](CCCNC(=N)N)NC(=O)[C@H](CC(C)C)NC(=O)[C@H](CCCNC(=N)N)NC(=O)[C@@H](NC(=O)[C@H](Cc1ccc(O)cc1)NC(=O)[C@H](CC(N)=O)NC(=O)[C@H](CC(=O)O)NC(=O)[C@@H](NC(=O)[C@H](Cc1ccccc1)NC(=O)[C@@H](NC(=O)[C@H](C)NC(=O)[C@H](CC(=O)O)NC(=O)[C@H](CO)NC(=O)[C@H](Cc1c[nH]cn1)NC(C)=O)C(C)C)[C@@H](C)O)[C@@H](C)O)C(=O)N[C@@H](C)C(=O)N[C@H](C(=O)N[C@@H](CCCCN)C(=O)N[C@@H](CCCCN)C(=O)N[C@@H](Cc1ccc(O)cc1)C(=O)N[C@@H](CC(C)C)C(=O)N[C@@H](CC(N)=O)C(=O)N[C@@H](CO)C(=O)N[C@H](C(=O)N[C@@H](CC(C)C)C(=O)N[C@@H](CC(N)=O)C(N)=O)[C@@H](C)CC)C(C)C [Ac--(Nle^17)--VIP, Ac-(Nle^17)VIP]	2800		111

SMILES	EC50 [2] [M]	Rel. Potency [1] [%]	Bronchodilator / relaxant activity (in words) ([1]; human in vitro tissue, summary of Table II)	Relative Potency [2] [%]
CC[C@H](C)[C@H](NC(=O)[C@H](CO)NC(=O)[C@H](CC(N)=O)NC(=O)[C@H](CC(C)C)NC(=O)[C@H](Cc1ccc(O)cc1)NC(=O)[C@H](CCCCN)NC(=O)[C@H](CCCCN)NC(=O)[C@@H](NC(=O)[C@H](C)NC(=O)[C@H](CCSC)NC(=O)[C@H](CCC(N)=O)NC(=O)[C@H](CCCCN)NC(=O)[C@H](CCCNC(=N)N)NC(=O)[C@H](CC(C)C)NC(=O)[C@H](CCCNC(=N)N)NC(=O)[C@@H](NC(=O)[C@H](Cc1ccc(O)cc1)NC(=O)[C@H](CC(N)=O)NC(=O)[C@H](CC(=O)O)NC(=O)[C@@H](NC(=O)[C@H](Cc1ccccc1)NC(=O)[C@@H](NC(=O)[C@H](C)NC(=O)[C@H](CC(=O)O)NC(=O)[C@H](CO)NC(=O)[C@@H](N)Cc1c[nH]cn1)C(C)C)[C@@H](C)O)[C@@H](C)O)C(C)C)C(=O)N[C@@H](CC(C)C)C(=O)N[C@@H](CC(N)=O)C(N)=O [VIP, Vasoactive intestinal peptide]	1e-08	100	weak relaxant	100
